Tests used:
[1] = system: BALB/c male mice; experiment: Mice Behavior in the Elevated Plus Maze; assay type: in vivo
Excerpt: Plus Maze”. The length of each arm in the labyrinth was 30 cm, the width was 5 cm, the height of the walls was 15 cm. Two opposite arms were closed from sides and end faces by transparent walls, the other two arms were lit and opened. A mouse was placed in the center of the maze and for the next five minutes the number of entries the open and closed sections and the time spent in each type of arms was registered. […]

[2] = system: SHK male mice; experiment: Novel object recognition by mice against the background of Scopolamine and MK-801; assay type: in vivo; conditions: Scopolamine 1 mg/kg, MK-801 0.2 mg/kg
Protocol: The experiments were carried out in a cross like maze which consisted of 4 peripheral arms connected with the central chamber by 7×7 cm holes. The maze was made of black plastic and its arms were of 14×14×14 cm size. The top cover of the maze was transparent.
A mouse was placed in the central chamber of the maze and allowed to investigate the environment. Criterion of entering an arm by the animal was detecting of all its paws inside the arm. The test was considered to be completed when the mouse had accomplished 12 transitions between the arms (having made 13 visits). The floor of the maze was cleaned after each animal.
The test was carried out twice with each mouse with 1 hour interval.
During the first test each arm of the maze contained a circular plastic cup of 3 cm height and 7 cm diameter. In the second test the cover of each two opposing arms was replaced by a conical glass flask of 7 cm height and 4 cm across the bottom. The time the mouse spent in each arm of the maze was registered and the index of novel object recognition was calculated as the ratio of the time the mouse spent in the arms with the flasks to the time it spent in all arms of the maze. If no preference was given to the arms with novel objects the index was 0.5.
The mice spend more time in the arm containing novel objects that results in an increasing of recognition index. Scopolamine (1 mg/kg) and MK-801 (0.2 mg/kg) disturbed learning (memory) that leads to the lowering of recognition index.

[3] = system: BALB/c male mice; experiment: Mice Training in the Morris Water maze, memory disturbed by Scopolamine; assay type: in vivo; conditions: Scopolamine 0.6 mg/kg, 1.2.1(5)HCl 0.1 mg/kg, 1.2.1(1)HCl 1 mg/kg, Tacrine 3 mg/kg
Protocol: A round pool of 100 cm in diameter and sides height of 30 cm was used. It was filled with water at 20-22° C. A round ceramic platform of 14 cm height was placed in the pool. Animals's behavior was registered with an automated computer video system in combination with software package of movement analysis Any-maze (Stoelting Co., US). The experiments were carried out on aged male mice of BALB/c line weighing 20-24 grams. Before the experiments mice suitable for training were selected. This was done by placing the platform 1 cm above the water level and putting an animal on the platform for 20 seconds. Then the mouse was sunk into the water on the opposite side of the pool, allowed to find the platform and climb it for 60 seconds, where it was left for additional 20 seconds. After that the mouse was repeatedly immersed into the water on the opposite side of the pool and allowed to look for the platform. If it failed in finding the platform within 60 seconds the experimentator helped it to find the platform and climb it. If the mice couldn't find the platform itself in two consecutive attempts it was excluded from the experiment. During the next two days the platform was placed 0.5 cm lower the water level. Every day the mice were given four attempts for finding the platform within 60 seconds. The time interval between the attempts was 20 seconds, during which the mice stayed on the platform. Every day before the first attempt the mice was placed on the platform for 20 seconds. The time needed for finding and climbing the platform was registered. The animals were sunk into water in two different places on the side of the pool opposite to the platform. […] The animals of the control group were injected with physiological solution. At least 8 animals were used in each group. On the third day the platform was removed and each animal was placed one time into the pool for a period of 60 seconds. The time each mouse spent in the area where the platform had been located during the previous days was registered. […]

[4] = system: BALB/c male mice; experiment: Passive Avoidance of Mice in the Shuttle Chamber, scopolamine or MK-801 (Example 8); assay type: in vivo; conditions: scopolamine 0.3 mg/kg or MK-801 0.1 mg/kg
Protocol: A shuttle chamber (Ugo Basile, Italy) consisted of two sections was used. […] The sections were connected through a hole which could be shut with a vertical door. The floor was made of transverse metal bars on which DC current impulses could be fed. Experiments were carried out in aged male mice of BALB/c line weighing 20-24 grams.
On the first day of the experiment 30 minutes before training the mice were injected intraintestinally with physiological solution of scopolamine (0.3 mg/kg) or Scopolamine in combination with antagonists of 5-HT6 receptors 1.2.1(2)HCl, 1.2.1(4)HCl or 1.2.1(5)HCl. Each group consisted of at least 8 animals. The animals were placed in the light section, and the latent period of the first entry into the dark chamber was registered. Then the vertical door was shut and the animal was punished by 0.6 mA DC current for 3 seconds. After that the animal was returned to its living cage. In 22-24 hours the same animal was placed again in the light section of the shuttle chamber and the latent period of its first entry into the dark section, the total time of its stay in the light section and the number of entries into the dark section were registered. Each observation lasted for 5 minutes.
The experiment was carried out as in example 7. […]

[5] = target: T1, 5-HT6 receptor (Homo sapiens, UniProt P50406); experiment: Inhibition of serotonin-stimulated intracellular cAMP in HEK 293 cells with expressed 5-HT6 receptor (LANCE cAMP); assay type: cell-based; conditions: serotonin-induced cAMP
T1 construct: expressed in transfected cells; host or cells: HEK 293
T1 sequence (P50406 whole entry): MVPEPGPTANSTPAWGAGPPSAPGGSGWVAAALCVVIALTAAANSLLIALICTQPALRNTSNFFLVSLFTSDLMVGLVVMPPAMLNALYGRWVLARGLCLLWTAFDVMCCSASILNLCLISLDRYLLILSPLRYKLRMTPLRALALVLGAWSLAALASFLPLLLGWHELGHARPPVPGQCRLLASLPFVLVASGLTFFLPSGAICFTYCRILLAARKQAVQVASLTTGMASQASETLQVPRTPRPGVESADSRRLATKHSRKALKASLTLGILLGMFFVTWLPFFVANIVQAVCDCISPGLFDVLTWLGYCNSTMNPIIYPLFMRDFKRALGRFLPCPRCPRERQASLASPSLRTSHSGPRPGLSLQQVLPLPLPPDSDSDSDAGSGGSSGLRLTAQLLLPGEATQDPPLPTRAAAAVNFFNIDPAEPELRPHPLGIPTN
Protocol: The cells HEK 293 (kidney cells of a human embryon) with an artificially expressed 5-HT6 receptor, activation of which with serotonin results in intracellular cAMP increasing, were used. The concentration of intracellular cAMP was determined using a LANCE cAMP reagent (PerkinElmer) by the method described by the manufacturer: [http://las.perkinelmer.com/content/Manuals/MAN_LANCEcAMP384KitUser.pdf].
The effectiveness of the compounds was estimated on the basis of their ability to reduce the concentration of intracellular cAMP induced by serotonin, FIG. 1.

[6] = system: BALB/c male mice; experiment: Passive Avoidance of Mice in a Shuttle Chamber, memory disturbed by scopolamine (Example 7); assay type: in vivo; conditions: scopolamine 0.3 mg/kg
Protocol: A shuttle chamber (Ugo Basile, Italy) consisted of two sections was used. […] The sections were connected through a hole which could be shut with a vertical door. The floor was made of transverse metal bars on which DC current impulses could be fed. Experiments were carried out in aged male mice of BALB/c line weighing 20-24 grams. On the first day of the experiment 30 minutes before training the mice were injected intraintestinally with physiological solution of scopolamine (0.3 mg/kg) or Scopolamine in combination with antagonists of 5-HT6 receptors 1.2.1(2)HCl, 1.2.1(4)HCl or 1.2.1(5)HCl. Each group consisted of at least 8 animals. The animals were placed in the light section, and the latent period of the first entry into the dark chamber was registered. Then the vertical door was shut and the animal was punished by 0.6 mA DC current for 3 seconds. After that the animal was returned to its living cage. In 22-24 hours the same animal was placed again in the light section of the shuttle chamber and the latent period of its first entry into the dark section, the total time of its stay in the light section and the number of entries into the dark section were registered. Each observation lasted for 5 minutes. The experiment was carried out during the day time in an isolated laboratory using white noise at a level of about 70 decibel above the human hearing threshold. Scopolamine causes the disturbance of training (memory loss) which results in […] and a decreased number of entries into the dark section. The fact that 5-HT6 receptor antagonists can improve the learning ability that has been disturbed by scopolamine is regarded as evidence for their nootropic effect.

[7] = target: H1 histamine receptor (Homo sapiens, UniProt P35367); experiment: Histamine-induced intracellular calcium in SK-N-SH cells (Fura 2 AM), Phase 1: block of calcium entry
Sequence of H1 histamine receptor (P35367 whole entry): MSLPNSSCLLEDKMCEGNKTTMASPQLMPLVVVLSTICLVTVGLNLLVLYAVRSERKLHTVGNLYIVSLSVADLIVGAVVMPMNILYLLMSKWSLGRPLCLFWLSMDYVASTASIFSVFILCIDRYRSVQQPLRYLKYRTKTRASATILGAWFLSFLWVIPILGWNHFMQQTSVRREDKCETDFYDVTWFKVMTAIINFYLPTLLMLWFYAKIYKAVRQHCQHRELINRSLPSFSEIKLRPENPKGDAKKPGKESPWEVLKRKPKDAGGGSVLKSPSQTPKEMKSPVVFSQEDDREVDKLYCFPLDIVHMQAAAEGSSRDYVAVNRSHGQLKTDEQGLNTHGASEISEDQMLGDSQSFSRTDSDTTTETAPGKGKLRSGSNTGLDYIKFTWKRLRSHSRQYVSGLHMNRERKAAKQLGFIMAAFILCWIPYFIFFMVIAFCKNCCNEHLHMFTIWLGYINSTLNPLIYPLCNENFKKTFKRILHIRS
Protocol: SK-N-SH Cells (ATCC, USA) were grown in DMEM medium (Invitrogen, USA) containing 10% fetal calf serum (FBS) and Penicillin-Streptomycin antibiotics, in CO2 incubator (5% CO2) until getting the cell density 1*10^5 cells/cm^2. The cells were removed from the surface of the flask with TrypLE Express reagent (Invitrogen, USA), then collected by means of centrifugation and resuspended in Hybridoma Serum Free Medium (HSFM, Sigma, USA) providing the concentration of 4*10^6 cells/ml. For measuring the intracellular concentration of calcium the cells were loaded with the calcium-sensitive fluorescent dye Fura 2 AM (Invitrogen, USA) by incubating their suspension with the dye for 30 minutes at room temperature. Again, the cells were collected by centrifugation, resuspended in HSFM; incubated for 15 minutes, recollected by centrifugation, washed twice with HSFM and resuspended in HSFM setting up the concentration 4*10^6 cells/ml. The cells were diluted with an operating buffer (NaCl 0.145 M, KCl 0.0054 M, NaH2PO4 0.001 M, MgSO4 0.0008 M, CaCl2 0.0018 M, HEPES 0.03 M, D-glucose 0.0112 M pH 7.4) to the concentration of 1*10^5 cells/ml in a measuring cell with a magnet stirrer, after that the fluorescence registration was carried out in the mode of two-wavelength excitement (340 and 380 nm, respectively) with an emission wavelength of 510 nm (F1 and F2, respectively). In 20 seconds after the beginning of registration, 10 mM of histamine water solution was added (a final concentration is 10 μM). […] In order to estimate the biological activity of the compounds, their serial DMSO dilutions were prepared and the correlation between the influence of the compound on the histamine induced calcium stream and its concentration was determined. The transforming fluorescent signal into calcium concentration was carried out by means of the equation built in the program Super Ion Probe (Shimadzu) software. For this purpose the maximum concentration of free calcium was determined by adding 0.1 mg/ml of digitonine (Sigma, USA) up to 0.1 mg/ml, while the zero calcium concentration—by adding of ethylene-diamin-tetraacetate (EDTA) up to 10 mM. Kinetic curves of lowering intracellular calcium concentration after the addition of the tested compound in the presence of histamine were calculated with a single-phase exponential model using the Prism 4 software (GraphPad Software, Inc.): [Ca]=[Ca]max*exp(−K*T)+[Ca]min where T is the time after the tested compound was added, [Ca]max and [Ca]min are the maximum (the peak value after the addition of histamine) and the minimum (the equilibrium level the curve approached after the addition of the tested compound) concentrations of intracellular calcium, K is the rate constant of intracellular calcium concentration lowering calculated by minimization of least square deviations.
The calculated rate constants of calcium concentration lowering (K) were used to determine their dependence on the tested compound concentration (C); and by means of the program Prism 4 using this dependence the values of EC50 (the concentration of the tested compound corresponding to half-maximum increasing of the rate constant of intracellular calcium concentration lowering) were determined by virtue of four parameter equation
[formula] where KBkg and Kmax are the rate constants of calcium concentration lowering without and in the presence of infinitely large concentration of the tested compound, respectively; N is Hill's coefficient.

| Compound | tranquilizing action (elevated plus maze, FIG. 19-21) [1] | nootropic action (novel object recognition, FIG. 13-14) [2] | improvement of mice's training (Morris water maze, FIG. 11-12) [3] | nootropic action (passive avoidance, FIGS. 5-10) [4] | IC50 [5] [nM] | nootropic action (passive avoidance, FIGS. 2-4) [6] | EC50 [7] [nM] |
| --- | --- | --- | --- | --- | --- | --- | --- |
| Cc1ccc2c(c1)c1c(n2CCc2ccccc2)CCN(C)C1.Cl [1.2.1(1)HCl, 2,8-dimethyl-5-(2-phenethyl)-2,3,4,5-tetrahydro-1H-pyrido[4,3-b]indole hydrochloride] | exhibit a tranquilizing action, which is the most prominent | nootropic action, the level of which is the most prominent | statistically significant improvement of mice's training | highest activity |  |  |  |
| Cc1ccc2c(c1)c1c(n2CCc2ccncc2)CCN(C)C1.Cl [1.2.1(2)HCl, 2,8-dimethyl-5-[2-(pyridin-4-yl)ethyl]-2,3,4,5-tetrahydro-1H-pyrido[4,3-b]indole hydrochloride] |  |  |  |  | 430 | exhibit a nootropic action which is the most prominent | 160 |
| Cc1ccc2c(c1)c1c(n2CCc2ccccn2)CCN(C)C1.Cl [1.2.1(4)HCl, 2,8-dimethyl-5-[2-(pyridin-2-yl)ethyl]-2,3,4,5-tetrahydro-1H-pyrido[4,3-b]indole hydrochloride] |  |  |  |  |  | exhibit a nootropic action which is the most prominent | 500 |
| Cc1ccc2c(c1)c1c(n2CCc2ccc(C)nc2)CCN(C)C1.Cl [1.2.1(5)HCl, 2,8-dimethyl-5-[2-(6-methylpyridin-3-yl)ethyl]-2,3,4,5-tetrahydro-1H-pyrido[4,3-b]indole hydrochloride, reference compound] | exhibit a tranquilizing action | nootropic action | statistically significant improvement of mice's training | act as nootropic | 4400 | exhibit a nootropic action | 160 |
| O=C1CC2(CCCC2)CC(=O)N1CCCCN1CCN(c2ncccn2)CC1 [Buspiron] | exhibit a tranquilizing action |  |  |  |  |  |  |
| Nc1c2c(nc3ccccc13)CCCC2 [Tacrine] |  |  | statistically significant improvement of mice's training |  |  |  |  |

Reference: patent publication US8541437B2, “Substituted 2,3,4,5-tetrahydro-1H-pyrido[4,3-b]indoles, methods for the production and use thereof” (Alla Chem, LLC, priority 2007, dated 2013)
